Measurements published in patent US10441555B2, “Pharmaceutical composition” (Olatec Therapeutics LLC, priority 2012, dated 2019).
Where a name gives a salt, the structure may show the parent alone.

Assays:
[1] = system: arachidonic acid-induced ear swelling; assay: topical arachidonic acid-induced ear swelling model in mice; format: in vivo; settings: male ICR mice, topical application 30 min before and 15 min after arachidonic acid; measured at 60 minutes; test compounds 375 mM, indomethacin 14 mM; n=10
Protocol: The test compounds, indomethacin (positive control), and vehicle were evaluated for anti-inflammatory activity in a topical arachidonic acid-induced ear swelling model in mice. Male ICR mice weighing 22±2 g were used and randomly divided; each group had 10 mice. Arachidonic Acid (0.5 mg in 20 μl of acetone:ethanol/1:1) was applied topically to the anterior and posterior surfaces of the right ear of each mice. Test substances and vehicle, as listed in Table 1 were similarly applied 30 min before and 15 min after arachidonic acid application. The thickness of the right ear and the left ear was measured and the difference calculated as an indication of the inflammation in the right ear. Ear swelling was measured by a Dyer model micrometer gauge at 60 and 90 minutes after arachidonic acid application as an index of inflammation. Percent inhibition was calculated according to the formula: Ic−It/Ic×100, where Ic and It refers to increase of ear thickness (mm) in control and treated mice, respectively. ANOVA and Dunnett's test were employed to ascertain significant difference between vehicle control and treated groups. Significance is set at P<0.05 level.

Row | SMILES | % Inhibition of ear swelling [1] | melting point
1 | COc1ccc2c(c1)c(CC(=O)O)c(C)n2C(=O)c1ccc(Cl)cc1 [Indomethacin, indomethacin, reference compound] | 54% | –
2 | CS(=O)(=O)CCCN (as salt: hydrochloride) [3-(methylsulfonyl)propylamine] | – | 146.9 to 147.4 °C
3 | CS(=O)(=O)CCC(N)=O [3-(methylsulfonyl)propionamide] | 30% | –
4 | CS(=O)(=O)CCCN [3-(methylsulfonyl)propylamine] | 42% | –
